Experimental data: patent publication US9586951B2 (FUJIFILM Corporation, priority 2013, dated 2017)

These molecules were tested against T1, ATM (Homo sapiens, UniProt Q13315) (assay: ATM inhibition test (phosphorylation of Chk2 generated by ionizing radiation, AlphaScreen SureFire)). Conditions: phosphorylated Chk2 in NCI-H460 cells, ionizing radiation 8Gy, 1 hour after test compound treatment; read-out: ATM inhibitory activity.
T1 construct: detecting phosphorylation of Chk2 in a human non-small cell lung cancer cell line NCI-H460 (ATCC company); host or cells: NCI-H460 human non-small cell lung cancer cells
T1 sequence (Q13315 whole entry): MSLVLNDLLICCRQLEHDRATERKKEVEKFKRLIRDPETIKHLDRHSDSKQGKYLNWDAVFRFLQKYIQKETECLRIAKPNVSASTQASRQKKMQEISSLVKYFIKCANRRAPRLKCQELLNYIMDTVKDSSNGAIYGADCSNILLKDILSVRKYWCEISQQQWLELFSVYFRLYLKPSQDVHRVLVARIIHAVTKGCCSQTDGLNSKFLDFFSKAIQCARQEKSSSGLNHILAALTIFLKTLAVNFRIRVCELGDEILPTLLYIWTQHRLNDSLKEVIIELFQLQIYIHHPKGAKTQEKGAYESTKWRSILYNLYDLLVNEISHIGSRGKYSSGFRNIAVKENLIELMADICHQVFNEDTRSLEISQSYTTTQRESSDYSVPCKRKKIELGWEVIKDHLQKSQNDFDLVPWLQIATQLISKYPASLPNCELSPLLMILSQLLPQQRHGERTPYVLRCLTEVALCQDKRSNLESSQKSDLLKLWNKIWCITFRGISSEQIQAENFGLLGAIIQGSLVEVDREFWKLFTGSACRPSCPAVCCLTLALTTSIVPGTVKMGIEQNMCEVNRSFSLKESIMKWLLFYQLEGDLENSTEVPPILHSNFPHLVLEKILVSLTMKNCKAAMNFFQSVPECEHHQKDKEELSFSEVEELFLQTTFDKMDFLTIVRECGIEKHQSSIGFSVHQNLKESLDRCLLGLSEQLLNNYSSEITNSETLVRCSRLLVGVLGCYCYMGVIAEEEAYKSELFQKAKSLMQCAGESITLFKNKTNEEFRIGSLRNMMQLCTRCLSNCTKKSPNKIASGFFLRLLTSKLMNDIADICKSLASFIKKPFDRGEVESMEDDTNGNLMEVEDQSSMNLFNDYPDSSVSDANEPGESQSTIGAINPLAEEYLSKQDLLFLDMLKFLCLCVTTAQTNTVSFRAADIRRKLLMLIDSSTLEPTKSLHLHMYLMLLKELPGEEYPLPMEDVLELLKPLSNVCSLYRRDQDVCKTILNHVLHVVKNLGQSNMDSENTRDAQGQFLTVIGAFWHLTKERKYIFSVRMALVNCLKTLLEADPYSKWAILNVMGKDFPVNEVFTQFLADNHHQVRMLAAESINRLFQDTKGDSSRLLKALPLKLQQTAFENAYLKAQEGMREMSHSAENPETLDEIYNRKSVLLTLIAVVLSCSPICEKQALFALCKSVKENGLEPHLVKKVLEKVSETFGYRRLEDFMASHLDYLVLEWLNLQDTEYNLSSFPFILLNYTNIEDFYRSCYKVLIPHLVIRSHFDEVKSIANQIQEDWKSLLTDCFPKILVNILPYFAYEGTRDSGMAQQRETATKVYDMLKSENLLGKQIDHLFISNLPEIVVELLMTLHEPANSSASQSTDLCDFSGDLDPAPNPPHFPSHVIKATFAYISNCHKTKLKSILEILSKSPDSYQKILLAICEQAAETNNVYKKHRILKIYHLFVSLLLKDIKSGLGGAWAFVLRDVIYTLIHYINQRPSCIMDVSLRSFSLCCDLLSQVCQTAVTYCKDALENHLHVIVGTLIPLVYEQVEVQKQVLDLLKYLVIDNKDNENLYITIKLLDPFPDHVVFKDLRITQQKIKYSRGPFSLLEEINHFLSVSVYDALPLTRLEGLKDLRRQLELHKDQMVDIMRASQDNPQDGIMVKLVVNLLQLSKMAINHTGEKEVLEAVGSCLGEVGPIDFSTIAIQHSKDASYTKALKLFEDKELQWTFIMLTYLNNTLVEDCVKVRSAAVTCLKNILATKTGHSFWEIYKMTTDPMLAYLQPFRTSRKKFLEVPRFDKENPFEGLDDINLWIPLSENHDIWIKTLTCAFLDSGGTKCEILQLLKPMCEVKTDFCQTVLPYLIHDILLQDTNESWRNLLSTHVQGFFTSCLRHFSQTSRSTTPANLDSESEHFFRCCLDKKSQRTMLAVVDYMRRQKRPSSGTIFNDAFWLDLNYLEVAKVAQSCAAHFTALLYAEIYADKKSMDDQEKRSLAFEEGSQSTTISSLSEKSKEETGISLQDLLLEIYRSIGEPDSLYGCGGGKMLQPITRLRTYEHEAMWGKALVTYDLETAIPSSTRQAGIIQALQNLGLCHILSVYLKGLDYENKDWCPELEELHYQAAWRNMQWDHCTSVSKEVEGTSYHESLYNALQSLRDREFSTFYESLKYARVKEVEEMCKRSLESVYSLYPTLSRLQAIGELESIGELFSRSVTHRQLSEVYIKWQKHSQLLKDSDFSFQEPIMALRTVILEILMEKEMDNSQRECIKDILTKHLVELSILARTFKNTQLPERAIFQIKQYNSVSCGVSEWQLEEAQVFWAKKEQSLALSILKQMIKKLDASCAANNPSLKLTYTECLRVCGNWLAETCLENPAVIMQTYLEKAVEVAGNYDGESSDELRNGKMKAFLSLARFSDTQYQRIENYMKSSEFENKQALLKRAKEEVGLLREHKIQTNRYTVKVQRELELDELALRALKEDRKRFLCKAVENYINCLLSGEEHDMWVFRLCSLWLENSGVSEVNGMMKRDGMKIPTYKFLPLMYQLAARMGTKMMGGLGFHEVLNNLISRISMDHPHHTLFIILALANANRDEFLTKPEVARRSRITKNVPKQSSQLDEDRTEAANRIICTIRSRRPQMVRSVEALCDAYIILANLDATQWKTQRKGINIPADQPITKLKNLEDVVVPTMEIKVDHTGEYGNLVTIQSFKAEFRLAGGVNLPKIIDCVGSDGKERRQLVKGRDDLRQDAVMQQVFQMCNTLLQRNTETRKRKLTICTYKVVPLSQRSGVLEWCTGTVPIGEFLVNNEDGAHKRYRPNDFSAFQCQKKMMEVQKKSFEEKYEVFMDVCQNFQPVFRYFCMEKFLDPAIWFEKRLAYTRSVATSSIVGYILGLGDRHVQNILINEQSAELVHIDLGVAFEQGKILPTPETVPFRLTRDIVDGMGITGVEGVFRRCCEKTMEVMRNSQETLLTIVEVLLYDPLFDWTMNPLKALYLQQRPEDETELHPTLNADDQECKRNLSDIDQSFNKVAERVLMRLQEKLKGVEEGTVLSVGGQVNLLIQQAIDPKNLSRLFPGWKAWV
Type: cell-based
Method in brief: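 In NCI-H460 cells, radiation-triggered Chk2 phosphorylation (8Gy, 1 h) is detected by AlphaScreen SureFire following 1 h compound exposure.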

`Cc1nccc(C(C)Nc2ccc3c(c2)Sc2cccc(-c4cc(N5CCOCC5)cc(=O)[nH]4)c2S3)n1` (centres unmarked) [Example 1-12-80, 6-(7-((1-(2-Methylpyrimidin-4-yl)ethyl)amino)thianthren-1-yl)-4-morpholino pyridin-2(1H)-one] and `CC(CN1CCN(Cc2ccccc2)CC1)Nc1ccc2c(c1)Sc1cccc(-c3cc(N4CCOCC4)cc(=O)[nH]3)c1S2` (centres unmarked) [Example 1-15-1, 6-(7-((1-(4-Benzylpiperazin-1-yl)propan-2-yl)amino)thianthren-1-yl)-4-morpholinopyridin-2(1H)-one] fall in the same range of IC50: 100 to 500 nM for the first, 100 to 500 nM for the second.

First: O=c1cc(N2CCOCC2)cc(-c2cccc3c2Oc2ccc(NCCN4CCOCC4)cc2C3)[nH]1 [Example 2-23-2, 4-Morpholino-6-(7-((2-morpholinoethyl)amino)-9H-xanthen-4-yl)pyridin-2(1H)-one]
Second: CC(Nc1ccc2c(c1)Sc1cccc(-c3cc(N4CCOCC4)cc(=O)[nH]3)c1S2)C(=O)N1CCCC1C (centres unmarked) [Example 1-18-6]
The IC50 of the first is higher: 500 to 2000 nM for the first, 100 to 500 nM for the second.

First: 3-((6-(4-Morpholino-6-oxo- 1,6-dihydropyridin-2-yl) thianthren-2-yl)amino) indolin-2-one [Example 1-12-37]
Second: Cc1ccc(C(Nc2ccc3c(c2)Sc2cccc(-c4cc(N5CCOCC5)cc(=O)[nH]4)c2S3)[C@H]2CCCN2C)nc1 (single isomer, unassigned) [Example 1-56-5]
The IC50 of the first is higher: 100 to 500 nM for the first, under 100 nM for the second.

`Cc1cccc(C(Nc2ccc3c(c2)Sc2cccc(-c4cc(N5CCOCC5)cc(=O)[nH]4)c2S3)C2CCCNC2)n1` (centres unmarked) [Example 1-20-13, 6-(7-(((6-Methylpyridin-2-yl)(piperidin-3-yl)methyl)amino)thianthren-1-yl)-4-morpholino pyridin-2(1H)-one] and `CN1CCN(CCNc2ccc3c(c2)Cc2cccc(-c4cc(N5CCOCC5)cc(=O)[nH]4)c2S3)CC1` [Example 3-4-3, 6-(7-((2-(4-Methylpiperazin-1-yl)ethyl)amino)-9H-thioxanthen-4-yl)-4-morpholino pyridin-2 (1H)-one] fall in the same range of IC50: 500 to 2000 nM for the first, 500 to 2000 nM for the second.

`Cc1nccnc1CNc1ccc2c(c1)Sc1cccc(-c3cc(N4CCOCC4)cc(=O)[nH]3)c1S2` [Example 1-12-61, 6-(7-(((3-Methylpyrazin-2-yl)methyl)amino)thianthren-1-yl)-4-morpholino pyridin-2 (1H)-one] and `O=c1cc(N2CCOCC2)cc(-c2cccc3c2Oc2ccc(NCc4cnccc4Cl)cc2C3)[nH]1` [Example 2-14-4, 6-(7-(((4-Chloropyridin-3-yl)methyl)amino)-9H-xanthen-4-yl)-4-morpholino pyridin-2(1H)-one] fall in the same range of IC50: 100 to 500 nM for the first, 100 to 500 nM for the second.

Compared with `Cc1ccc(C(Nc2ccc3c(c2)Sc2cccc(-c4cc(N5CCOCC5)cc(=O)[nH]4)c2S3)[C@H]2CN(C)CCO2)nc1` (single isomer, unassigned) [Example 1-56-13], `O=c1cc(N2CCOCC2)cc(-c2cccc3c2Oc2ccc(NCc4cncc(N5CCCC5)c4)cc2C3)[nH]1` [Example 2-2-63, 4-Morpholino-6-(7-(((5-(pyrrolidin-1-yl)pyridin-3-yl)methyl)amino)-9H-xanthen-4-yl)pyridin-2(1H)-one] is higher in IC50: under 100 nM for the first, 100 to 500 nM for the second.

First: O=c1cc(N2CCOCC2)nc(-c2cccc3c2Oc2ccc(NCc4cc(Cl)ccn4)cc2C3)[nH]1 [Example 2-52-3, 2-(7-(((4-Chloropyridin-2-yl)methyl)amino)-9H-xanthen-4-yl)-6-morpholinopyrimidine-4(3H)-one]
Second: CC(=O)Nc1cccc(CNc2ccc3c(c2)Cc2cccc(-c4cc(N5CCOCC5)cc(=O)[nH]4)c2O3)n1 [Example 2-2-73, N-(6-(((5-(4-Morpholino-6-oxo-1,6-dihydropyridin-2-yl)-9H-xanthen-2-yl)amino)methyl)pyridin-2-yl) acetamide]
The IC50 of the first is lower: 100 to 500 nM for the first, 500 to 2000 nM for the second.

First: Cn1cc(CNc2ccc3c(c2)Cc2cccc(-c4cc(N5CCOCC5)cc(=O)[nH]4)c2O3)ccc1=O [Example 2-2-45, 1-Methyl-5-(((5-(4-morpholino-6-oxo-1,6-dihydropyridin-2-yl)-9H-xanthen-2-yl)amino)methyl) pyridin-2(1H)-one]
Second: O=c1cc(N2CCOCC2)cc(-c2cccc3c2Sc2ccc(N[C@H](CCN4CCOCC4)CN4CCOCC4)cc2S3)[nH]1 [Example 8-1, (R)-6-(7-((1,4-dimorpholinobutan-2-yl)amino)thianthren-1-yl)-4-morpholinopyridin-2(1H)-one]
The IC50 of the first is higher: 500 to 2000 nM for the first, 100 to 500 nM for the second.

Compared with `O=c1cc(N2CCOCC2)cc(-c2cccc3c2Sc2ccc(NC4CCN(C5CCOCC5)C4)cc2S3)[nH]1` (centres unmarked) [Example 1-24-13, 4-Morpholino-6-(7-((1-(tetrahydro-2H-pyran-4-yl)pyrrolidin-3-yl)amino)thianthren-1-yl)pyridin-2 (1H)-one], `Cc1ccc(C(CCN2CCOCC2)Nc2ccc3c(c2)Sc2cccc(-c4cc(N5CCOCC5)cc(=O)[nH]4)c2S3)nc1` (single isomer, unassigned) [Example 1-51-7, 6-(7-((1-(5-Methylpyridin-2-yl)-3-morpholinopropyl)amino)thianthren-1-yl)-4-morpholino pyridin-2(1H)-one] is lower in IC50: 100 to 500 nM for the first, under 100 nM for the second. The second is the more potent here.

Compared with `CC(CN1CCOCC1C)Nc1ccc2c(c1)Sc1cccc(-c3cc(N4CCOCC4)cc(=O)[nH]3)c1S2` (centres unmarked) [Example 1-13-10, 6-(7-((1-(3-Methylmorpholino)propan-2-yl)amino)thianthren-1-yl)-4-morpholino pyridin-2(1H)-one], `CN1CCCC(Nc2ccc3c(c2)Cc2cccc(-c4cc(N5CCOCC5)cc(=O)[nH]4)c2O3)C1` (centres unmarked) [Example 2-7-1, 6-(7-((1-methylpiperidin-3-yl)amino)-9H-xanthen-4-yl)-4-morpholinopyridin-2(1H)-one] is higher in IC50: 100 to 500 nM for the first, 500 to 2000 nM for the second. The first is the more potent here.

`CC(CN1C2CCC1COC2)Nc1ccc2c(c1)Sc1cccc(-c3cc(N4CCOCC4)cc(=O)[nH]3)c1S2` (centres unmarked) [Example 1-13-5, 6-(7-((1-(3-Oxa-8-azabicyclo [3.2.1]octan-8-yl)propan-2-yl)amino)thianthren-1-yl)-4-morpholino pyridin-2(1H)-one] and `O=c1cc(N2CCOCC2)cc(-c2cccc3c2Oc2ccc(NC4CCCN(CCc5ccccc5)CC4)cc2C3)[nH]1` (centres unmarked) [Example 2-19-5, 4-Morpholino-6-(7-((1-phenethylazepan-4-yl)amino)-9H-xanthen-4-yl)pyridin-2(1H)-one] fall in the same range of IC50: 100 to 500 nM for the first, 100 to 500 nM for the second.

First: O=c1cc(N2CCOCC2)cc(-c2cccc3c2Oc2ccc(NCc4ccncc4)cc2CC3)[nH]1 [Example 2-51-3, 4-Morpholino-6-(8-((pyridin-4-ylmethyl)amino)-10,11-dihydrodibenz[b,f]oxepin-4-yl)pyridin-2(1H)-one]
Second: O=C1CCN1c1cncc(CNc2ccc3c(c2)Sc2cccc(-c4cc(N5CCOCC5)cc(=O)[nH]4)c2O3)c1 [Example 4-8-16, 4-Morpholino-6-(8-(((5-(2-oxoazetidin-1-yl)pyridin-3-yl)methyl)amino)phenoxathiin-4-yl)pyridin-2 (IH)-one]
The IC50 of the first is higher: 500 to 2000 nM for the first, 100 to 500 nM for the second.

`O=c1cc(N2CCOCC2)cc(-c2cccc3c2Oc2ccc(NC4CCN(CC(F)(F)F)CC4)cc2C3)[nH]1` [Example 2-34, 4-Morpholino-6-(7-((1-(2,2,2-trifluoroethyl)piperidin-4-yl)amino)-9H-xanthen-4-yl)pyridin-2(1H)-one] and `O=c1cc(N2CCOCC2)cc(-c2cccc3c2Oc2ccc(NC4CCN(Cc5cncnc5)CC4)cc2C3)[nH]1` [Example 2-28-4, 4-Morpholino-6-(7-((1-(pyrimidin-5-ylmethyl)piperidin-4-yl)amino)-9H-xanthen-4-yl)pyridin-2 (1H)-one] fall in the same range of IC50: 100 to 500 nM for the first, 100 to 500 nM for the second.
